According to PubChem BioAssay (NCI):
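Dose response: 5 concentrations. Exposure: 48 h. Format: 96-well plates. Endpoint: linear interpolation; highest concentration if not reached. GI50 is the concentration that inhibits growth by half. The concentration for full growth arrest is given as TGI.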

Experiments:
Assay in all cases: NCI anticancer screen, dose series, 48 h
HCC-2998 colon = tested on: HCC-2998 colon
UO-31 renal = tested on: UO-31 renal
PC-3 prostate = tested on: PC-3 prostate
HOP-92 NSCLC = tested on: HOP-92 NSCLC
RPMI-8226 leukemia = tested on: RPMI-8226 leukemia
LOX IMVI melanoma = tested on: LOX IMVI melanoma
OVCAR-3 ovarian = tested on: OVCAR-3 ovarian
MDA-MB-231 breast = tested on: MDA-MB-231 breast
M14 melanoma = tested on: M14 melanoma
A549 NSCLC = tested on: A549 NSCLC
CAKI-1 renal = tested on: CAKI-1 renal
TK-10 renal = tested on: TK-10 renal
IGROV1 ovarian = tested on: IGROV1 ovarian
NCI-H460 lung = tested on: NCI-H460 lung
K-562 leukemia = tested on: K-562 leukemia
EKVX NSCLC = tested on: EKVX NSCLC
OVCAR-5 ovarian = tested on: OVCAR-5 ovarian
NCI-H226 lung = tested on: NCI-H226 lung
CCRF-CEM leukemia = tested on: CCRF-CEM leukemia
HOP-62 NSCLC = tested on: HOP-62 NSCLC
OVCAR-4 ovarian = tested on: OVCAR-4 ovarian
OVCAR-8 ovarian = tested on: OVCAR-8 ovarian
A498 renal = tested on: A498 renal
MCF7 breast = tested on: MCF7 breast
SF-268 CNS = tested on: SF-268 CNS
ACHN renal = tested on: ACHN renal
HCT-116 colon = tested on: HCT-116 colon
MOLT-4 leukemia = tested on: MOLT-4 leukemia
HCT-15 colon = tested on: HCT-15 colon
SR leukemia = tested on: SR leukemia
UACC-62 melanoma = tested on: UACC-62 melanoma
SK-OV-3 ovarian = tested on: SK-OV-3 ovarian
HT29 colon = tested on: HT29 colon
BT-549 breast = tested on: BT-549 breast
SNB-75 CNS = tested on: SNB-75 CNS
COLO 205 colon = tested on: COLO 205 colon
786-0 renal = tested on: 786-0 renal
NCI/ADR-RES ovarian = tested on: NCI/ADR-RES ovarian
HS 578T breast = tested on: HS 578T breast
DU-145 prostate = tested on: DU-145 prostate
SF-539 CNS = tested on: SF-539 CNS
U251 CNS = tested on: U251 CNS
UACC-257 melanoma = tested on: UACC-257 melanoma
SW-620 colon = tested on: SW-620 colon
MDA-MB-435 = tested on: MDA-MB-435
KM12 colon = tested on: KM12 colon
T-47D breast = tested on: T-47D breast
NCI-H522 lung = tested on: NCI-H522 lung
MALME-3M melanoma = tested on: MALME-3M melanoma
SK-MEL-5 melanoma = tested on: SK-MEL-5 melanoma
SK-MEL-2 melanoma = tested on: SK-MEL-2 melanoma
SF-295 CNS = tested on: SF-295 CNS
NCI-H23 lung = tested on: NCI-H23 lung
SN12C renal = tested on: SN12C renal
SNB-19 CNS = tested on: SNB-19 CNS
SK-MEL-28 melanoma = tested on: SK-MEL-28 melanoma

Cc1cc2c(cc1Cl)SC1=NN(C)C(C)N1S2(=O)=O (configuration not stated)
GI50 (HCC-2998 colon): > 100 µM | TGI (HCC-2998 colon): > 100 µM | GI50 (UO-31 renal): > 100 µM | TGI (UO-31 renal): > 100 µM | GI50 (PC-3 prostate): > 100 µM | TGI (PC-3 prostate): > 100 µM | GI50 (HOP-92 NSCLC): 19.3 µM | TGI (HOP-92 NSCLC): 80.9 µM | GI50 (RPMI-8226 leukemia): > 100 µM | TGI (RPMI-8226 leukemia): > 100 µM | GI50 (LOX IMVI melanoma): > 100 µM | TGI (LOX IMVI melanoma): > 100 µM | GI50 (OVCAR-3 ovarian): > 100 µM | TGI (OVCAR-3 ovarian): > 100 µM | GI50 (MDA-MB-231 breast): > 100 µM | TGI (MDA-MB-231 breast): > 100 µM | GI50 (M14 melanoma): > 100 µM | TGI (M14 melanoma): > 100 µM | GI50 (A549 NSCLC): > 100 µM | TGI (A549 NSCLC): > 100 µM | GI50 (CAKI-1 renal): > 100 µM | TGI (CAKI-1 renal): > 100 µM | GI50 (TK-10 renal): > 100 µM | TGI (TK-10 renal): > 100 µM | GI50 (IGROV1 ovarian): > 100 µM | TGI (IGROV1 ovarian): > 100 µM | GI50 (NCI-H460 lung): > 100 µM | TGI (NCI-H460 lung): > 100 µM | GI50 (K-562 leukemia): > 100 µM | TGI (K-562 leukemia): > 100 µM | GI50 (EKVX NSCLC): > 100 µM | TGI (EKVX NSCLC): > 100 µM | GI50 (OVCAR-5 ovarian): > 100 µM | TGI (OVCAR-5 ovarian): > 100 µM | GI50 (NCI-H226 lung): > 100 µM | TGI (NCI-H226 lung): > 100 µM | GI50 (CCRF-CEM leukemia): > 100 µM | TGI (CCRF-CEM leukemia): > 100 µM | GI50 (HOP-62 NSCLC): > 100 µM | TGI (HOP-62 NSCLC): > 100 µM | GI50 (OVCAR-4 ovarian): 74.8 µM | TGI (OVCAR-4 ovarian): > 100 µM | GI50 (OVCAR-8 ovarian): > 100 µM | TGI (OVCAR-8 ovarian): > 100 µM | GI50 (A498 renal): > 100 µM | TGI (A498 renal): > 100 µM | GI50 (MCF7 breast): 36 µM | TGI (MCF7 breast): > 100 µM | GI50 (SF-268 CNS): 98.1 µM | TGI (SF-268 CNS): > 100 µM | GI50 (ACHN renal): > 100 µM | TGI (ACHN renal): > 100 µM | GI50 (HCT-116 colon): > 100 µM | TGI (HCT-116 colon): > 100 µM | GI50 (MOLT-4 leukemia): 71 µM | TGI (MOLT-4 leukemia): > 100 µM | GI50 (HCT-15 colon): > 100 µM | TGI (HCT-15 colon): > 100 µM | GI50 (SR leukemia): 39.2 µM | TGI (SR leukemia): > 100 µM | GI50 (UACC-62 melanoma): > 100 µM | TGI (UACC-62 melanoma): > 100 µM | GI50 (SK-OV-3 ovarian): > 100 µM | TGI (SK-OV-3 ovarian): > 100 µM | GI50 (HT29 colon): > 100 µM | TGI (HT29 colon): > 100 µM | GI50 (BT-549 breast): 96.5 µM | TGI (BT-549 breast): > 100 µM | GI50 (SNB-75 CNS): 35.3 µM | TGI (SNB-75 CNS): > 100 µM | GI50 (COLO 205 colon): > 100 µM | TGI (COLO 205 colon): > 100 µM | GI50 (786-0 renal): > 100 µM | TGI (786-0 renal): > 100 µM | GI50 (NCI/ADR-RES ovarian): > 100 µM | TGI (NCI/ADR-RES ovarian): > 100 µM | GI50 (HS 578T breast): > 100 µM | TGI (HS 578T breast): > 100 µM | GI50 (DU-145 prostate): > 100 µM | TGI (DU-145 prostate): > 100 µM | GI50 (SF-539 CNS): > 100 µM | TGI (SF-539 CNS): > 100 µM | GI50 (U251 CNS): > 100 µM | TGI (U251 CNS): > 100 µM | GI50 (UACC-257 melanoma): > 100 µM | TGI (UACC-257 melanoma): > 100 µM | GI50 (SW-620 colon): > 100 µM | TGI (SW-620 colon): > 100 µM | GI50 (MDA-MB-435): > 100 µM | TGI (MDA-MB-435): > 100 µM | GI50 (KM12 colon): > 100 µM | TGI (KM12 colon): > 100 µM | GI50 (T-47D breast): 95.8 µM | TGI (T-47D breast): > 100 µM | GI50 (NCI-H522 lung): 88.8 µM | TGI (NCI-H522 lung): > 100 µM | GI50 (MALME-3M melanoma): > 100 µM | TGI (MALME-3M melanoma): > 100 µM | GI50 (SK-MEL-5 melanoma): > 100 µM | TGI (SK-MEL-5 melanoma): > 100 µM | GI50 (SK-MEL-2 melanoma): > 100 µM | TGI (SK-MEL-2 melanoma): > 100 µM | GI50 (SF-295 CNS): > 100 µM | TGI (SF-295 CNS): > 100 µM | GI50 (NCI-H23 lung): > 100 µM | TGI (NCI-H23 lung): > 100 µM | GI50 (SN12C renal): > 100 µM | TGI (SN12C renal): > 100 µM | GI50 (SNB-19 CNS): > 100 µM | TGI (SNB-19 CNS): > 100 µM | GI50 (SK-MEL-28 melanoma): > 100 µM | TGI (SK-MEL-28 melanoma): > 100 µM
